Experiments:
[1] = Retention time of the compound by chromatography; type: physicochemical
HepG2 [2] = assay: Anticancer activity against human HepG2 cells assessed as cell viability after 48 hrs by MTT assay; type: functional, cell-based; details: HepG2, 48 h
[3] = Binding affinity to Bcl-xL (unknown origin); design: species or system Homo sapiens
Interleukin-2 = Interleukin-2 (Homo sapiens, UniProt P60568); assay: Binding affinity to IL-2 (unknown origin)
Tumor necrosis factor = Tumor necrosis factor (Homo sapiens, UniProt P01375); assay: Binding affinity to TNF-alpha (unknown origin)
HepG2 [4] = assay: Anticancer activity against human HepG2 cells assessed as cell viability after 24 hrs by MTT assay; type: functional, cell-based; details: HepG2, 24 h

Tumor necrosis factor, sequence (P01375 whole entry): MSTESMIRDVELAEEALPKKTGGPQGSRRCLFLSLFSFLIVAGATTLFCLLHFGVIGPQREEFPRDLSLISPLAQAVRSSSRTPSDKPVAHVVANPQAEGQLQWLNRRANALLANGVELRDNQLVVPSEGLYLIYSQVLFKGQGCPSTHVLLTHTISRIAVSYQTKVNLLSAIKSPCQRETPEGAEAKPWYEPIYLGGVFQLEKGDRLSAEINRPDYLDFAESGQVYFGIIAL
Interleukin-2, sequence (P60568 whole entry): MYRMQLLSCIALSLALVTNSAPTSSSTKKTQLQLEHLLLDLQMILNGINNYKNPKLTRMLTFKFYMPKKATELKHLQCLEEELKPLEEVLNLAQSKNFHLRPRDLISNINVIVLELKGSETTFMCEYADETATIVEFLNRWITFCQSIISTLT

| SMILES | Kd [3] | Kd (Interleukin-2) | IC50 (HepG2 [4]) | Retention_time [1] | IC50 (HepG2 [2]) | Kd (Tumor necrosis factor) |
| --- | --- | --- | --- | --- | --- | --- |
| CC(C)(O)[C@@H]1CC[C@](C)([C@H]2[C@@H](O)C[C@@]3(C)[C@@H]4C[C@H](O[C@@H]5O[C@H](CO)[C@@H](O)[C@H](O)[C@H]5O)[C@H]5C(C)(C)[C@@H](O[C@@H]6OC[C@@H](O)[C@H](O)[C@H]6O)CC[C@@]56C[C@@]46CC[C@]23C)O1 | 0.126 nM | – | – | 28.6 min | > 100 µM | – |
| C[C@@H]1CC[C@@]2(OC1)O[C@H]1C[C@H]3[C@@H]4CC=C5C[C@@H](O[C@@H]6O[C@H](CO)[C@@H](O)[C@H](O[C@@H]7O[C@H](CO)[C@@H](O)[C@H](O)[C@H]7O)[C@H]6O)CC[C@]5(C)[C@H]4CC[C@]3(C)[C@H]1[C@@H]2C | – | – | – | 16.9 min | – | – |
| O=C(NS(=O)(=O)c1ccc(NCCSc2ccccc2)c([N+](=O)[O-])c1)c1ccc(-c2ccc(F)cc2)cc1 | 810 nM | – | – | – | – | – |
| CC(=O)O[C@H]1CC[C@]2(C)[C@H]3CC=C4[C@@H]5CC(C)(C)CC[C@]5(C(=O)O)CC[C@@]4(C)[C@]3(C)CC[C@H]2C1(C)C [ACETYL OLEANOLIC ACID] | – | – | – | 39.8 min | > 100 µM | – |
| O=c1cc(-c2ccc(O)cc2)oc2cc(O[C@@H]3O[C@H](CO)[C@@H](O)[C@H](O)[C@H]3O)cc(O)c12 [APIGETRIN] | 76.2 nM | – | 90.6 µM | 28.6 min | – | 200 nM |
| COc1ccc(-c2coc3cc(O)ccc3c2=O)cc1O [CALYCOSIN] | – | – | – | 34.5 min | > 100 µM | – |
| C[C@H](CC(=O)C[C@@H](C)[C@H]1C[C@H](O)[C@@]2(C)C3=C(C(=O)C[C@]12C)[C@@]1(C)CCC(=O)C(C)(C)[C@@H]1C[C@@H]3O)C(=O)O [GANODERIC ACID A] | – | – | – | 50.4 min | 38.7 µM | 8.53 nM |
| CC(CC(=O)C[C@@H](C)[C@H]1CC(=O)[C@@]2(C)C3=C(C(=O)C[C@]12C)[C@@]1(C)CC[C@H](O)C(C)(C)[C@@H]1C[C@@H]3O)C(=O)O (stereo partly specified) [GANODERIC ACID B] | – | – | – | 47.5 min | 97.4 µM | 8.81 nM |
| C[C@H](CC(=O)C[C@@H](C)[C@H]1C[C@H](O)[C@@]2(C)C3=C(C(=O)C[C@]12C)[C@@]1(C)CC[C@H](O)C(C)(C)[C@@H]1C[C@@H]3O)C(=O)O [GANODERIC ACID C2] | – | – | – | 49.8 min | > 100 µM | 8.39 nM |
| CC(CC(=O)C[C@@H](C)[C@H]1CC(=O)[C@@]2(C)C3=C(C(=O)C[C@]12C)[C@@]1(C)CCC(=O)C(C)(C)[C@@H]1C[C@@H]3O)C(=O)O (stereo partly specified) [GANODERIC ACID D] | – | – | – | 45.7 min | 22.9 µM | 18.6 nM |
| CC(=O)O[C@@H]1C(=O)C2=C(C(=O)C[C@H]3C(C)(C)C(=O)CC[C@]23C)[C@]2(C)C(=O)C[C@H]([C@H](C)CC(=O)CC(C)C(=O)O)[C@@]12C (stereo partly specified) [GANODERIC ACID F] | – | – | 19.6 µM | 54.4 min | – | 2.69 nM |
| CC(CC(=O)C[C@@H](C)[C@H]1CC(=O)[C@@]2(C)C3=C(C(=O)[C@@H](O)[C@]12C)[C@@]1(C)CC[C@H](O)C(C)(C)[C@@H]1C[C@@H]3O)C(=O)O (stereo partly specified) [GANODERIC ACID G] | – | – | – | 46.5 min | 85.6 µM | – |
| CC(=O)O[C@@H]1C(=O)C2=C(C(=O)C[C@H]3C(C)(C)[C@@H](O)CC[C@]23C)[C@]2(C)C(=O)C[C@H]([C@H](C)CC(=O)CC(C)C(=O)O)[C@@]12C (stereo partly specified) [GANODERIC ACID H] | – | – | – | 51.1 min | 70.3 µM | 2.45 nM |
| C[C@H](CCC=C(CO)CO)[C@H]1CC[C@@]2(C)C3=CC[C@H]4C(C)(C)C(=O)CC[C@]4(C)C3=CC[C@]12C [GANODERIOL F] | – | – | – | 10.3 min | 20.7 µM | 16.8 nM |
| O=c1cc(-c2ccc(O)c(O)c2)oc2cc(O)cc(O)c12 [LUTEOLIN] | – | – | 80.8 µM | 38.1 min | – | – |

Further lines, with some results ahead:

| Kd [3] | Kd (Interleukin-2) | IC50 (HepG2 [4]) | SMILES | Retention_time [1] | IC50 (HepG2 [2]) | Kd (Tumor necrosis factor) |
| --- | --- | --- | --- | --- | --- | --- |
| 2.4 nM | 2.59 nM | – | C/C=C1\[C@H](O[C@@H]2O[C@H](CO)[C@@H](O)[C@H](O)[C@H]2O)OC=C(C(=O)OC)[C@H]1CC(=O)OC[C@H]1O[C@@H](OCCc2ccc(O)cc2)[C@H](O)[C@@H](O)[C@@H]1O | 13.5 min | > 100 µM | – |
| 110 nM | 35.6 nM | – | COc1ccc(-c2coc3cc(O[C@@H]4O[C@H](CO)[C@@H](O)[C@H](O)[C@H]4O)ccc3c2=O)cc1O | 26.4 min | > 100 µM | 1820 nM |
| – | 3380 nM | 61.2 µM | O=c1c(-c2ccc(O)cc2)coc2cc(O[C@@H]3O[C@H](CO)[C@@H](O)[C@H](O)[C@H]3O)ccc12 [DAIDZIN] | 8.61 min | – | – |
| – | 0.0289 nM | 30.3 µM | C[C@@H]1CC[C@@]2(OC1)O[C@H]1C[C@H]3[C@@H]4CC=C5C[C@@H](O[C@@H]6O[C@H](CO)[C@@H](O)[C@H](O)[C@H]6O)CC[C@]5(C)[C@H]4CC[C@]3(C)[C@H]1[C@@H]2C [DISOGLUSIDE] | – | – | – |
| – | – | 12.5 µM | COc1cccc2c1C(=O)c1c(O)c3c(c(O)c1C2=O)C[C@@](O)(C(=O)CO)C[C@@H]3O[C@H]1C[C@H](N)[C@H](O)[C@H](C)O1 [DOXORUBICIN] | – | – | – |
| 7750 nM | 5470 nM | 60.5 µM | COc1ccc(-c2coc3cc(O)ccc3c2=O)cc1 [FORMONONETIN] | 48.5 min | – | – |
| 9.89 nM | 20 nM | 20.8 µM | O=c1cc(-c2ccc(O)c(O)c2)oc2cc(O[C@@H]3O[C@H](CO)[C@@H](O)[C@H](O)[C@H]3O)cc(O)c12 [GALUTEOLIN] | 31.2 min | – | 790 nM |
| 170 nM | 120 nM | – | COc1ccc(-c2coc3cc(O[C@@H]4O[C@H](CO)[C@@H](O)[C@H](O)[C@H]4O)ccc3c2=O)cc1 [ONONIN] | 39.3 min | 40.8 µM | – |
